Reference: patent US20260015350A1, “AZAQUINAZOLINE PAN-KRAS INHIBITORS” (Mirati Therapeutics, Inc., priority 2022, published 2026)

Tests used:
[1] = tested on: KRas-mediated phosphorylation of ERK in H727 cells; experiment: Inhibition of KRas-mediated phosphorylation of ERK (Cisbio HTRF pERK), H727 cells; format: cell-based; settings: Homo sapiens, NCI-H727, H727 cells; HTRF pERK
Summary of the method: (§1)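 Phosphorylated ERK was quantified by HTRF using d2-conjugate and Cryptate antibodies added to lysates for 2 hrs at room temperature.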

[2] = tested on: KRas-mediated phosphorylation of ERK in MKN1 cells; experiment: Inhibition of KRas-mediated phosphorylation of ERK (Cisbio HTRF pERK), MKN1 cells; format: cell-based; settings: Homo sapiens, MKN-1
Method: (§2) Inhibition of KRas Phosphorylation of ERK (HTRF) by Exemplary Compounds of Formula (I)
(§3) Cisbio HTRF Advanced PERK Assay Catalog #64AERPEH
(§4) Day 1: Seed 6,000 cells/well-25 μl/well in 384-well white solid bottom plate; RPM1_10% FBS. Incubate overnight at 37° C./5% CO2.
(§5) Incubate for 4 hours at room temperature covered.
(§6) Read HTRF using ClarioStar

[3] = tested on: KRas-mediated phosphorylation of ERK in AsPC-1 cells; experiment: Inhibition of KRas-mediated phosphorylation of ERK (Cisbio HTRF pERK), AsPC-1 cells; format: cell-based; settings: Homo sapiens, ASPC1, AsPC-1 cells; HTRF pERK
Summary of the method: as §1

[4] = tested on: KRas-mediated phosphorylation of ERK in PSN1 cells; experiment: Inhibition of KRas-mediated phosphorylation of ERK (Cisbio HTRF pERK), PSN1 cells; format: cell-based; settings: Homo sapiens
Method: as §2, §3, §4, §5, §6

KRas^G12V = target: T1, KRas^G12V (Homo sapiens, UniProt P01116, G12V); experiment: KRas binding assay (TR-FRET tracer displacement), KRas G12V
T1 construct: Biotinylated KRas (corresponding to amino acids 1-169, produced at Accelegan Inc.); biotin (biotinylated); purchased Accelegan Inc

KRas^G12R = target: T2, KRas^G12R (Homo sapiens, UniProt P01116, G12R); experiment: KRas binding assay (TR-FRET tracer displacement), KRas G12R
T2 construct: Biotinylated KRas (corresponding to amino acids 1-169, produced at Accelegan Inc.); biotin (biotinylated); purchased Accelegan Inc

KRas^G12D = target: T3, KRas^G12D (Homo sapiens, UniProt P01116, G12D); experiment: KRas binding assay (TR-FRET tracer displacement), KRas G12D
T3 construct: Biotinylated KRas (corresponding to amino acids 1-169, produced at Accelegan Inc.); biotin (biotinylated); purchased Accelegan Inc
T3 sequence (P01116 1-169 isoform P01116-2 G12D): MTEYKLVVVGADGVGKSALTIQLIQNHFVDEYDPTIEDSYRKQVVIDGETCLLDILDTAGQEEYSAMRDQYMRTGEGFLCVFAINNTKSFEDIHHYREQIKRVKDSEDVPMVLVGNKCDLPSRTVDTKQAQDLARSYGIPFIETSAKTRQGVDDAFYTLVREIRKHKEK

T2 sequence (P01116 1-169 isoform P01116-2 G12R): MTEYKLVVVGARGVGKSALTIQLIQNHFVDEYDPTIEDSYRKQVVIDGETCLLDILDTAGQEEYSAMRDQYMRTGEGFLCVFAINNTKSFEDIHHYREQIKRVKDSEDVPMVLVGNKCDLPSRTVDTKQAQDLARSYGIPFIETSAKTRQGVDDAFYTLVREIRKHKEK
T1 sequence (P01116 1-169 isoform P01116-2 G12V): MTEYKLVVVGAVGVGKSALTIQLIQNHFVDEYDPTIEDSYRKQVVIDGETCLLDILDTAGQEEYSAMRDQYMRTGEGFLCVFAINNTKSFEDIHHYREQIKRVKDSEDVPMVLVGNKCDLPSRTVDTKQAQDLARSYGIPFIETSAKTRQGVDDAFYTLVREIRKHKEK

Compound	IC50 [1]	IC50 [2]	IC50 [3]	IC50 [4]	IC50 (KRas^G12V)	IC50 (KRas^G12R)	IC50 (KRas^G12D)
CCc1c(F)ccc2cc(O)cc(-c3ncc4c(NCc5cnn(C(=O)N(C)C)c5N)nc(OC[C@@]56CCCN5C[C@H](F)C6)nc4c3F)c12 [Example 640, 5-amino-4-(((7-(8-ethyl-7-fluoro-3-hydroxynaphthalen-1-yl)-8-fluoro-2-(((2R,7aS)-2-fluorohexahydro-1H-pyrrolizin-7a-yl)methoxy)pyrido[4,3-d]pyrimidin-4-yl)amino)methyl)-N,N-dimethyl-1H-pyrazole-1-carboxamide]	889 nM	208 nM	5130 nM	> 10000 nM	16 nM	17 nM	83 nM
CCc1c(F)ccc2cc(O)cc(-c3ncc4c(N5CCCC6(C[C@H](O)[C@H](O)CO6)C5)nc(OC[C@@]56CCCN5C[C@H](F)C6)nc4c3F)c12 (stereo partly drawn) [Example 642, (3R,4S)-8-(7-(8-ethyl-7-fluoro-3-hydroxynaphthalen-1-yl)-8-fluoro-2-(((2R,7aS)-2-fluorohexahydro-1H-pyrrolizin-7a-yl)methoxy)pyrido[4,3-d]pyrimidin-4-yl)-1-oxa-8-azaspiro[5.5]undecane-3,4-diol]	> 10000 nM	2870 nM	> 10000 nM	> 10000 nM	235 nM	195 nM	864 nM
CCc1c(F)ccc2cc(O)cc(-c3ncc4c(N[C@H](C)c5cc(C(=O)N(C)C)nn5C)nc(OC[C@@]56CCCN5C[C@H](F)C6)nc4c3F)c12 [Example 651, 5-((R)-1-((7-(8-ethyl-7-fluoro-3-hydroxynaphthalen-1-yl)-8-fluoro-2-(((2R,7aS)-2-fluorohexahydro-1H-pyrrolizin-7a-yl)methoxy)pyrido[4,3-d]pyrimidin-4-yl)amino)ethyl)-N,N,1-trimethyl-1H-pyrazole-3-carboxamide]	1790 nM	546 nM	1460 nM	> 10000 nM	10 nM	15 nM	30 nM
CCc1c(F)ccc2cc(O)cc(-c3ncc4c(N5CCCC6(CCNS(=O)(=O)N6)C5)nc(OC[C@@]56CCCN5C[C@H](F)C6)nc4c3F)c12 (stereo partly drawn) [Example 656, 8-(7-(8-ethyl-7-fluoro-3-hydroxynaphthalen-1-yl)-8-fluoro-2-(((2R,7aS)-2-fluorotetrahydro-1H-pyrrolizin-7a(5H)-yl)methoxy)pyrido[4,3-d]pyrimidin-4-yl)-2-thia-1,3,8-triazaspiro[5.5]undecane 2,2-dioxide]	2380 nM	943 nM	1900 nM	3240 nM	6 nM	10 nM	5 nM
CN(C)C(=O)c1cc2n(n1)CCCN(c1nc(OCC34CCCN3CCC4)nc3c(F)c(-c4cc(O)cc(Cl)c4C4CC4)ncc13)C2 [Example 744, 5-(7-(3-chloro-2-cyclopropyl-5-hydroxyphenyl)-8-fluoro-2-((hexahydro-1H-pyrrolizin-7a-yl)methoxy)pyrido[4,3-d]pyrimidin-4-yl)-N,N-dimethyl-5,6,7,8-tetrahydro-4H-pyrazolo[1,5-a][1,4]diazepine-2-carboxamide]	5730 nM	> 10000 nM	2730 nM	> 10000 nM	< 2 nM	2 nM	< 2 nM
O=S1(=O)CCC2(CCCN(c3nc(OC[C@@]45CCCN4C[C@H](F)C5)nc4c(F)c(-c5cc(O)cc6ccc(F)c(Cl)c56)ncc34)C2)N1 (stereo partly drawn) [Example 807, 7-(7-(8-chloro-7-fluoro-3-hydroxynaphthalen-1-yl)-8-fluoro-2-(((2R,7aS)-2-fluorotetrahydro-1H-pyrrolizin-7a(5H)-yl)methoxy)pyrido[4,3-d]pyrimidin-4-yl)-2-thia-1,7-diazaspiro[4.5]decane 2,2-dioxide]	14 nM	3 nM	32 nM	125 nM	3 nM	< 2 nM	< 2 nM
Cc1cccc2cc3[nH]ncc3c(-c3ncc4c(N5CCCC6(CNS(=O)(=O)N6)C5)nc(OCC56CCCN5CCC6)nc4c3F)c12 (centres unmarked) [Example 808, 7-(8-fluoro-7-(5-methyl-1H-benzo[f]indazol-4-yl)-2-((tetrahydro-1H-pyrrolizin-7a(5H)-yl)methoxy)pyrido[4,3-d]pyrimidin-4-yl)-2-thia-1,3,7-triazaspiro[4.5]decane 2,2-dioxide]	1690 nM	653 nM	3070 nM	> 10000 nM	< 2 nM	< 2 nM	< 2 nM
CCc1c(F)ccc2cc(O)cc(-c3ncc4c(NCc5cc(C(=O)N(C)C)nn5C5COC5)nc(OC[C@@]56CCCN5C[C@H](F)C6)nc4c3F)c12 [Example 810, 5-(((7-(8-ethyl-7-fluoro-3-hydroxynaphthalen-1-yl)-8-fluoro-2-(((2R,7aS)-2-fluorotetrahydro-1H-pyrrolizin-7a(5H)-yl)methoxy)pyrido[4,3-d]pyrimidin-4-yl)amino)methyl)-N,N-dimethyl-1-(oxetan-3-yl)-1H-pyrazole-3-carboxamide]	4980 nM	110 nM	> 10000 nM	> 10000 nM	4 nM	4 nM	13 nM
CCc1c(F)ccc2cc(O)c(F)c(-c3ncc4c(N5C[C@@H]6C[C@H](C5)[C@H](O)C6)nc(OC[C@@]56CCCN5C[C@H](F)C6)nc4c3F)c12 [Example 811, (1R,5R,6R)-3-(7-(8-ethyl-2,7-difluoro-3-hydroxynaphthalen-1-yl)-8-fluoro-2-(((2R,7aS)-2-fluorotetrahydro-1H-pyrrolizin-7a(5H)-yl)methoxy)pyrido[4,3-d]pyrimidin-4-yl)-3-azabicyclo[3.2.1]octan-6-ol]	68 nM	37 nM	149 nM	5670 nM	2 nM	4 nM	8 nM
C#Cc1c(F)ccc2cc(O)cc(-c3ncc4c(N5CCC[C@@](C)(O)C5)nc(OC[C@]56CCCN5[C@H](CO)CC6)nc4c3F)c12 [Example 814, (R)-1-(7-(8-ethynyl-7-fluoro-3-hydroxynaphthalen-1-yl)-8-fluoro-2-(((3S,7aR)-3-(hydroxymethyl)tetrahydro-1H-pyrrolizin-7a(5H)-yl)methoxy)pyrido[4,3-d]pyrimidin-4-yl)-3-methylpiperidin-3-ol]	402 nM	176 nM	485 nM	> 10000 nM	< 2 nM	3 nM	< 2 nM
CCc1c(F)ccc2cc(O)cc(-c3ncc4c(N5CCC[C@@](C)(O)C5)nc(OC[C@@]56CCCN5C[C@H](F)CC6)nc4c3F)c12 [Example 815, (R)-1-(7-(8-ethyl-7-fluoro-3-hydroxynaphthalen-1-yl)-8-fluoro-2-(((6R,8aS)-6-fluorohexahydroindolizin-8a (1H)-yl)methoxy)pyrido[4,3-d]pyrimidin-4-yl)-3-methylpiperidin-3-ol]	28 nM	22 nM	32 nM	2290 nM	< 2 nM	4 nM	2 nM
Oc1cc(-c2ncc3c(N4C[C@@H]5C[C@H](C4)[C@H](O)C5)nc(OC[C@@]45CCCN4C[C@H](F)C5)nc3c2F)c2cc(C(F)(F)F)ccc2c1 [Example 817, (1R,5R,6R)-3-(8-fluoro-2-(((2R,7aS)-2-fluorotetrahydro-1H-pyrrolizin-7a(5H)-yl)methoxy)-7-(3-hydroxy-7-(trifluoromethyl)naphthalen-1-yl)pyrido[4,3-d]pyrimidin-4-yl)-3-azabicyclo[3.2.1]octan-6-ol]	43 nM	50 nM	188 nM	5110 nM	< 2 nM	2 nM	5 nM
CCc1c(F)ccc2cc(O)cc(-c3ncc4c(N5CCCCC(n6ccnn6)C5)nc(OC[C@@]56CCCN5C[C@H](F)C6)nc4c3F)c12 (stereo partly drawn) [Example 830, 4-(4-(3-(1H-1,2,3-triazol-1-yl)azepan-1-yl)-8-fluoro-2-(((2R,7aS)-2-fluorotetrahydro-1H-pyrrolizin-7a(5H)-yl)methoxy)pyrido[4,3-d]pyrimidin-7-yl)-5-ethyl-6-fluoronaphthalen-2-ol]	267 nM	188 nM	272 nM	7860 nM	5 nM	12 nM	5 nM
CCc1c(F)ccc2cc(O)cc(-c3ncc4c(N5C[C@H]6CC[C@@H](C5)N6C5CC(F)(F)C5)nc(OC[C@@]56CCCN5C[C@H](F)C6)nc4c3F)c12 [Example 831, 4-(4-((1R,5S)-8-(3,3-difluorocyclobutyl)-3,8-diazabicyclo[3.2.1]octan-3-yl)-8-fluoro-2-(((2R,7aS)-2-fluorotetrahydro-1H-pyrrolizin-7a(5H)-yl)methoxy)pyrido[4,3-d]pyrimidin-7-yl)-5-ethyl-6-fluoronaphthalen-2-ol]	1080 nM	13 nM	331 nM	> 10000 nM	36 nM	38 nM	42 nM
